Reference: US7547532B2, “Three-dimensional structure of prostaglandin D synthase and utilization thereof” (Japan Science and Technology Agency, priority 2001, dated 2009)

Tests used:
[1] = cited from earlier work
human hematopoietic PGDS = biological target: T1, human hematopoietic PGDS (Homo sapiens, UniProt O60760, N144M); experiment: Glutathione binding/affinity to PGDS with metal ion; details: metal ion in center of PGDS dimer
T1 construct: made in house; host or cells: Escherichia coli BL21 (DE-3), plasmid pT7-7hPGDS
T1 sequence (O60760 2-199 N144M): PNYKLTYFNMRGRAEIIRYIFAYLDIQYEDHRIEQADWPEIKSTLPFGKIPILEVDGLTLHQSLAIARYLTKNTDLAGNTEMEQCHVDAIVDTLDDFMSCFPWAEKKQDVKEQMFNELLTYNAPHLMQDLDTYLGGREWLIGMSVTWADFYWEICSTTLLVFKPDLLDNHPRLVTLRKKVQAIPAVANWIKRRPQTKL

sleep condition = details: administered in the ventricle of the brain of a mouse; cited from earlier work
hematopoietic PGDS = hematopoietic PGDS (Homo sapiens, UniProt O60760); experiment: PGDS enzymatic activity: conversion of PGH2 to PGD2 (confirmation of inhibitors); assay type: biochemical; details: metal ion in center of PGDS dimer
Chain of hematopoietic PGDS (O60760 whole entry): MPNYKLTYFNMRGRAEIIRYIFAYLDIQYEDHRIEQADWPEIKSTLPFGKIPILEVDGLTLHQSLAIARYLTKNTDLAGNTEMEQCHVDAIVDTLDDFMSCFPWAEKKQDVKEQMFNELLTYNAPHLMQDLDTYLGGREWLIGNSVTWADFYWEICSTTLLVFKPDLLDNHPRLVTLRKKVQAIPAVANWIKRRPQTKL
Excerpt: After a candidate compound for inhibition of hematopoietic PGDS is thus selected, the selected compound is contacted with the enzyme in the presence of the substrate (prostaglandin H2) to confirm the compound can inhibit the enzymatic activity (Shimizu, T., Yamamoto, S., and Hayaishi, O. (1979). Purification and properties of prostaglandin D synthase from rat brain. J. Biol. Chem. 254, 5222-5228). The measurement of enzymatic activity is, for example, carried out as follows: The substrate [1-^14C]prostaglandin(PG)H2 is prepared by reacting [1-^14C]arachidonic acid with cyclooxygenase. Since PGH2 is easily decomposed in aqueous solution (half-life: about 5 minutes), it is dried and stored at a low temperature (−80° C.). […] After the development, radioactivity of PGD2 fraction and other fraction are measured and the enzyme activity is calculated from the ratio of conversion to PGD2.
Alternatively, enzyme reaction is carried out using commercially available non-labeled PGH2. After the reaction, PGH2 is decomposed to 12(S)-hydroxy-8,10-trans-5-cis-heptadecatrienolic acid with the treatment by FeCl2 before quantifying with reverse phase HPLC using 11-β-PGE2 as an internal standard or commercially available ELISA to quantify PGD2.

allergic reaction = details: known from Matsushita et al. 1998, various experimental models; cited from earlier work

## CCCCC[C@H](O)/C=C/[C@@H]1[C@@H](C/C=C\CCCC(=O)O)[C@@H]2C[C@H]1OO2 [PGH2, prostaglandin H2]
[1]
  half-life in aqueous solution: about 5 minutes

## Magnesium
Human hematopoietic PGDS
  increase of affinity of glutathione to PGDS: more than 3 times

## CCCCC[C@H](O)/C=C/[C@H]1C(=O)C[C@H](O)[C@@H]1C/C=C\CCCC(=O)O [prostaglandin D2, Prostaglandin D2]
Sleep condition
  effect on sleep: sleep is induced

## Calcium
Human hematopoietic PGDS
  influence on glutathione binding: no influence on the glutathione binding
Hematopoietic PGDS
  effect on reaction rate of PGDS enzyme: increases the reaction rate of PGDS enzyme

## c1ccc(C(OC2CCN(CCCc3nnn[nH]3)CC2)c2ccccc2)cc1 [HQL-79, 4-benzhydryloxy-1-{3-(1H-tetrazol-5-yl)-propyl}piperidine]
Allergic reaction
  anti-allergic activity: anti-allergic activity
